Experiments:
[1] = molecular target: T1, recombinant human FLAP protein (Homo sapiens, UniProt P20292); assay: FLAP binding assay (Scintillation Proximity Assay, displacement of [125I]L-691,831); conditions: recombinant human FLAP membranes, [125I]L-691,831 probe; read-out: FLAP SPA IC50
T1 construct: made in house; host or cells: Sf9 insect cells (100,000 x g membrane fraction)
T1 sequence (P20292 1-161): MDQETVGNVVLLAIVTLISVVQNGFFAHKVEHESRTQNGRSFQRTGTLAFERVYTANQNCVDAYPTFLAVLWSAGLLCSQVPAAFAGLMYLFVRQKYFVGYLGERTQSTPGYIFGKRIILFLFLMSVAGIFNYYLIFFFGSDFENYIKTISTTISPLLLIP
Procedure: Cell pellets produced from sf9 insect cells expressing recombinant human FLAP protein are resuspended in buffer A [15 mM Tris-HCl (pH 7.5), 2 mM MgCl2, 0.3 mM EDTA, 1 mM PMSF]. The cells are lysed with a Dounce homogenizer and the material is centrifuged at 10,000×g for 10 minutes. The supernatant is then collected and centrifuged at 100,000×g for 60 minutes. To prepare membrane protein for an assay, an aliquot of the 100,000×g pellet is resuspended in 1 ml of buffer A, Dounce homogenized, and finally subjected to polytron mixing (30 seconds). Membrane protein (25 μl, 5 μg) is mixed with WGA SPA beads (Amersham) and stirred for 1 h.

[2] = tested on: synthesis of LTB4 in human whole blood; assay: human whole blood LTB4 production inhibition assay; assay type: cell-based; conditions: Homo sapiens, heparinized human whole blood, calcimycin 20 μM; read-out: hWB LTB4 IC50
Procedure: Compounds are additionally tested in a human whole blood assay to determine their ability to inhibit the synthesis of LTB4 in a cellular system. Compounds are combined with heparinized human whole blood and incubated for 15 minutes at 37° C. Calcimycin (20 μM final, prepared in phosphate-buffered saline, pH 7.4) is then added and the mixture is incubated for another 30 minutes at 37° C. The samples are centrifuged for 5 min at low speed (1500×g) and the plasma layer is removed. Plasma LTB4 concentrations are then measured using an antibody-based homogenous time-resolved fluorescence method (CisBio, Bedford, Mass.).

SMILES | IC50 [1] [nM] | IC50 [2] [nM]
COCCNc1cnc(-c2nc(C3(c4ccc(-c5cnc(N)nc5)cc4)CCC3)no2)cn1 [Example 62, 5-[4-(1-{5-[5-(2-Methoxy-ethylamino)-pyrazin-2-yl]-1,2,4-oxadiazol-3-yl}-cyclobutyl)-phenyl]-pyrimidin-2-ylamine] | 1.3 | 13
CCNc1cnc(-c2nc(C3(c4ccc(-c5cnc(N)nc5)cc4)CCC3)no2)cn1 [Example 63, 5-(4-{1-[5-(5-Ethylamino-pyrazin-2-yl)-1,2,4-oxadiazol-3-yl]-cyclobutyl}-phenyl)-pyrimidin-2-ylamine] | 1 | 25
Nc1ncc(-c2ccc(C3(c4noc(-c5ccc(C(=O)N6CC(O)C6)nc5)n4)CCC3)cc2)cn1 [Example 64, [5-(3-{1-[4-(2-Amino-pyrimidin-5-yl)-phenyl]-cyclobutyl}-1,2,4-oxadiazol-5-yl)-pyridin-2-yl]-(3-hydroxy-azetidin-1-yl)-methanone] | 7.7 | 310
CCn1cccc(-c2nc(C3(c4ccc(-c5cnc(N)nc5)cc4)CCC3)no2)c1=O [Example 65, 3-(3-{1-[4-(2-Amino-pyrimidin-5-yl)-phenyl]-cyclobutyl}-1,2,4-oxadiazol-5-yl)-1-ethyl-1H-pyridin-2-one] | 5.9 | 97
COCCn1cccc(-c2nc(C3(c4ccc(-c5cnc(N)nc5)cc4)CCC3)no2)c1=O [Example 66, 3-(3-{1-[4-(2-Amino-pyrimidin-5-yl)-phenyl]-cyclobutyl}-1,2,4-oxadiazol-5-yl)-1-(2-methoxy-ethyl)-1H-pyridin-2-one] | 8.4 | 120
Nc1ncc(-c2ccc(C3(c4noc(-c5cccn(CCO)c5=O)n4)CCC3)cc2)cn1 [Example 67, 3-(3-{1-[4-(2-Amino-pyrimidin-5-yl)-phenyl]-cyclobutyl}-1,2,4-oxadiazol-5-yl)-1-(2-hydroxy-ethyl)-1H-pyridin-2-one] | 12 | 290
Nc1ncc(-c2ccc(C3(c4noc(-c5cnc(NCCO)cn5)n4)CCC3)cc2)cn1 [Example 68, 2-[5-(3-{1-[4-(2-Amino-pyrimidin-5-yl)-phenyl]-cyclobutyl}-1,2,4-oxadiazol-5-yl)-pyrazin-2-ylamino]-ethanol] | 1.1 | 130
Nc1ncc(-c2ccc(C3(c4noc(-c5ccc(C(=O)N6CCC6)nc5)n4)CCC3)cc2)cn1 [Example 70, [5-(3-{1-[4-(2-Amino-pyrimidin-5-yl)-phenyl]-cyclobutyl}-1,2,4-oxadiazol-5-yl)-pyridin-2-yl]-azetidin-1-yl-methanone] | 3 | 220
Nc1ncc(-c2ccc(C3(c4noc(-c5cscn5)n4)CCC3)cc2)cn1 [Example 71] | 2.4 | 200
Nc1ncc(-c2ccc(C3(c4noc(-c5cnn6cccnc56)n4)CCC3)cc2)cn1 [Example 72, 5-{4-[1-(5-Pyrazolo[1,5-a]pyrimidin-3-yl-1,2,4-oxadiazol-3-yl)-cyclobutyl]-phenyl}-pyrimidin-2-ylamine] | 1.9 | 18
Nc1ncc(-c2ccc(C3(c4noc(-c5ccc6nccn6c5)n4)CCC3)cc2)cn1 [Example 73, 5-{4-[1-(5-Imidazo[1,2-a]pyridin-6-yl-1,2,4-oxadiazol-3-yl)-cyclobutyl]-phenyl}-pyrimidin-2-ylamine] | 6.8 | 450
Nc1ncc(-c2ccc(C3(c4noc(NCCO)n4)CCC3)cc2)cn1 [Example 74, 2-(3-{1-[4-(2-amino-pyrimidin-5-yl)-phenyl]-cyclobutyl}-1,2,4-oxadiazol-5-ylamino)-ethanol] | 71 | 520
Nc1ncc(-c2ccc(C3(c4noc(-c5ccc(C(=O)N6CCC(F)(F)C6)nc5)n4)CCC3)cc2)cn1 [Example 75, [5-(3-{1-[4-(2-Amino-pyrimidin-5-yl)-phenyl]-cyclobutyl}-1,2,4-oxadiazol-5-yl)-pyridin-2-yl]-(3,3-difluoro-pyrrolidin-1-yl)-methanone] | 3.5 | 190
COCCNC(=O)c1ccc(-c2nc(C3(c4ccc(-c5cnc(N)nc5)cc4)CCC3)no2)cn1 [Example 76, 5-(3-{1-[4-(2-Amino-pyrimidin-5-yl)-phenyl]-cyclobutyl}-1,2,4-oxadiazol-5-yl)-pyridine-2-carboxylic acid (2-methoxy-ethyl)-amide] | 3.9 | 190
Nc1ncc(-c2ccc(C3(c4noc(-c5ccc(C(=O)NCCO)nc5)n4)CCC3)cc2)cn1 [Example 77, 5-(3-{1-[4-(2-Amino-pyrimidin-5-yl)-phenyl]-cyclobutyl}-1,2,4-oxadiazol-5-yl)-pyridine-2-carboxylic acid (2-hydroxy-ethyl)-amide] | 2.6 | 160
CN(CCO)C(=O)c1ccc(-c2nc(C3(c4ccc(-c5cnc(N)nc5)cc4)CCC3)no2)cn1 [Example 78, 5-(3-{1-[4-(2-Amino-pyrimidin-5-yl)-phenyl]-cyclobutyl}-1,2,4-oxadiazol-5-yl)-pyridine-2-carboxylic acid (2-hydroxy-ethyl)-methyl-amide] | 8.8 | 160
Nc1ncc(-c2ccc(C3(c4noc(N5CCCCC5)n4)CCC3)cc2)cn1 [Example 80, 5-{4-[1-(5-Piperidin-1-yl-1,2,4-oxadiazol-3-yl)-cyclobutyl]-phenyl}-pyrimidin-2-ylamine] | 6.5 | 390
CNC(=O)Cn1cc(-c2nc(C3(c4ccc(-c5cnc(N)nc5)cc4)CCC3)no2)cn1 [Example 81, 2-[4-(3-{1-[4-(2-Amino-pyrimidin-5-yl)-phenyl]-cyclobutyl}-1,2,4-oxadiazol-5-yl)-pyrazol-1-yl]-N-methyl-acetamide] | 6.4 | 130
CC(CO)n1cc(-c2nc(C3(c4ccc(-c5cnc(N)nc5)cc4)CCC3)no2)cn1 (centres unmarked) [Example 82, 2-[4-(3-{1-[4-(2-Amino-pyrimidin-5-yl)-phenyl]-cyclobutyl}-1,2,4-oxadiazol-5-yl)-pyrazol-1-yl]-propan-1-ol] | 3.1 | 99
CC(O)Cn1cc(-c2nc(C3(c4ccc(-c5cnc(N)nc5)cc4)CCC3)no2)cn1 (centres unmarked) [Example 83, 1-[4-(3-{1-[4-(2-Amino-pyrimidin-5-yl)-phenyl]-cyclobutyl}-1,2,4-oxadiazol-5-yl)-pyrazol-1-yl]-propan-2-ol] | 4 | 110
CC(C)(CO)n1cc(-c2nc(C3(c4ccc(-c5cnc(N)nc5)cc4)CCC3)no2)cn1 [Example 84, 2-[4-(3-{1-[4-(2-Amino-pyrimidin-5-yl)-phenyl]-cyclobutyl}-1,2,4-oxadiazol-5-yl)-pyrazol-1-yl]-2-methyl-propan-1-ol] | 4 | 160
Nc1ncc(-c2ccc(C3(c4noc(-c5cnc(N6CCOCC6)cn5)n4)CCC3)cc2)cn1 [Example 85, 5-(4-{1-[5-(5-Morpholin-4-yl-pyrazin-2-yl)-1,2,4-oxadiazol-3-yl]-cyclobutyl}-phenyl)-pyrimidin-2-ylamine] | 1.3 | 71
Nc1ncc(-c2ccc(C3(c4noc(-c5cnc(N6CC(O)C6)cn5)n4)CCC3)cc2)cn1 [Example 86, 1-[5-(3-{1-[4-(2-Amino-pyrimidin-5-yl)-phenyl]-cyclobutyl}-1,2,4-oxadiazol-5-yl)-pyrazin-2-yl]-azetidin-3-ol] | 1.2 | 79
CCn1cnc(-c2nc(C3(c4ccc(-c5cnc(N)nc5)cc4)CCC3)no2)c1 [Example 87, 5-(4-{1-[5-(1-Ethyl-1H-imidazol-4-yl)-1,2,4-oxadiazol-3-yl]-cyclobutyl}-phenyl)-pyrimidin-2-ylamine] | 4.5 | 150
COCCn1cnc(-c2nc(C3(c4ccc(-c5cnc(N)nc5)cc4)CCC3)no2)c1 [Example 88, 5-[4-(1-{5-[1-(2-Methoxy-ethyl)-1H-imidazol-4-yl]-1,2,4-oxadiazol-3-yl}-cyclobutyl)-phenyl]-pyrimidin-2-ylamine] | 6.3 | 160
COC(=O)C(C)(C)Nc1cnc(-c2nc(C3(c4ccc(-c5cnc(N)nc5)cc4)CCC3)no2)cn1 [Example 90, 2-[5-(3-{1-[4-(2-Amino-pyrimidin-5-yl)-phenyl]-cyclobutyl}-1,2,4-oxadiazol-5-yl)-pyrazin-2-ylamino]-2-methyl-propionic acid methyl ester] | 3.4 | 210
Nc1ncc(-c2ccc(C3(c4noc(-c5ccc(=O)[nH]c5)n4)CCC3)cc2)cn1 [Example 91, 5-(3-{1-[4-(2-Amino-pyrimidin-5-yl)-phenyl]-cyclobutyl}-1,2,4-oxadiazol-5-yl)-1H-pyridin-2-one] | 3.7 | 151
Cn1ccc(-c2nc(C3(c4ccc(-c5cnc(N)nc5)cc4)CCC3)no2)n1 [Example 92, 5-(4-{1-[5-(1-Methyl-1I-pyrazol-3-yl)-1,2,4-oxadiazol-3-yl]-cyclobutyl}-phenyl)-pyrimidin-2-ylamine] | 4.9 | 150

— patent publication US8580829B2 (Boehringer Ingelheim International GmbH, priority 2010, dated 2013)
